Reference: ChEMBL document CHEMBL1201862, “PubChem BioAssay data set” (2004)
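Values below derive from 48-hour exposures of cells grown in 96-well plates, with endpoints linearly interpolated between the two concentrations bracketing the appropriate inhibition level. The concentration for 50% growth inhibition is given as GI50.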 Activity calls are given as the source filed them. No stated cut-off is given here; in the data, active = GI50 up to about 1.1 µM and inactive = higher.

Legend:
Experiment in all cases: NCI-60 cell line screen, 48 h
[1] = tested on: SF-539
[2] = tested on: DMS-114
[3] = tested on: HL-60
[4] = tested on: Malme-3M
[5] = tested on: PC-3
[6] = tested on: TK-10
[7] = tested on: COLO 205
[8] = tested on: ACHN
[9] = tested on: MDA-N
[10] = tested on: UACC-257
[11] = tested on: EKVX
[12] = tested on: K562
[13] = tested on: KM12
[14] = tested on: SNB-75
[15] = tested on: MDA-MB-231
[16] = tested on: M19-MEL
[17] = tested on: MCF7
[18] = tested on: RPMI-8226
[19] = tested on: A549
[20] = tested on: OVCAR-5
[21] = tested on: MOLT-4
[22] = tested on: UACC-62
[23] = tested on: SF-295
[24] = tested on: HOP-18
[25] = tested on: HOP-62
[26] = tested on: HCT-116
[27] = tested on: CAKI-1
[28] = tested on: DLD-1
[29] = tested on: IGROV-1
[30] = tested on: OVCAR-3
[31] = tested on: SK-MEL-2
[32] = tested on: NCI-H522
[33] = tested on: HCC 2998
[34] = tested on: RXF 393
[35] = tested on: DMS-273
[36] = tested on: SN12C
[37] = tested on: T47D
[38] = tested on: NCI-H226
[39] = tested on: SK-MEL-5
[40] = tested on: NCI-H460
[41] = tested on: SK-MEL-28
[42] = tested on: RXF 631
[43] = tested on: HCT-15
[44] = tested on: HT-29
[45] = tested on: NCI-H23
[46] = tested on: 786-0
[47] = tested on: DU-145
[48] = tested on: NCI/ADR-RES
[49] = tested on: MDA-MB-435
[50] = tested on: M14
[51] = tested on: BT-549
[52] = tested on: CCRF-CEM
[53] = tested on: OVCAR-8
[54] = tested on: SW-620
[55] = tested on: Hs-578T
[56] = tested on: SNB-19
[57] = tested on: OVCAR-4
[58] = tested on: LOX IMVI
[59] = tested on: XF498
[60] = tested on: UO-31
[61] = tested on: SK-OV-3
[62] = tested on: SF-268
[63] = tested on: A498
[64] = tested on: SNB-78
[65] = tested on: HOP-92
[66] = tested on: LXFL 529
[67] = tested on: U-251
[68] = tested on: KM-20L2
[69] = tested on: SR

Cc1oc2c(c1C(=O)c1ccccc1)C(=O)c1ccccc1C2=O
GI50 [1]: 10.6 µM (inactive) | GI50 [2]: 2.45 µM (inactive) | GI50 [3]: 2.28 µM (inactive) | GI50 [4]: 1.81 µM (inactive) | GI50 [5]: 6.79 µM (inactive) | GI50 [6]: 19.1 µM (inactive) | GI50 [7]: 13.9 µM (inactive) | GI50 [8]: 4.65 µM (inactive) | GI50 [9]: 2 µM (inactive) | GI50 [10]: 3.61 µM (inactive) | GI50 [11]: 12.6 µM (inactive) | GI50 [12]: 2.23 µM (inactive) | GI50 [13]: 6.55 µM (inactive) | GI50 [14]: 6.78 µM (inactive) | GI50 [15]: 2.24 µM (inactive) | GI50 [16]: 2.18 µM (inactive) | GI50 [17]: 4.07 µM (inactive) | GI50 [18]: 2.85 µM (inactive) | GI50 [19]: 14.7 µM (inactive) | GI50 [20]: 15.2 µM (inactive) | GI50 [21]: 2.47 µM (inactive) | GI50 [22]: 2.98 µM (inactive) | GI50 [23]: 9.27 µM (inactive) | GI50 [24]: 16.6 µM (inactive) | GI50 [25]: 14.2 µM (inactive) | GI50 [26]: 3.3 µM (inactive) | GI50 [27]: 4.23 µM (inactive) | GI50 [28]: 5.02 µM (inactive) | GI50 [29]: 4.99 µM (inactive) | GI50 [30]: 2.26 µM (inactive) | GI50 [31]: 3.26 µM (inactive) | GI50 [32]: 2.3 µM (inactive) | GI50 [33]: 15.5 µM (inactive) | GI50 [34]: 3.48 µM (inactive) | GI50 [35]: 8.34 µM (inactive) | GI50 [36]: 11.7 µM (inactive) | GI50 [37]: 3.83 µM (inactive) | GI50 [38]: 13.9 µM (inactive) | GI50 [39]: 1.24 µM (inactive) | GI50 [40]: 9.38 µM (inactive) | GI50 [41]: 11.1 µM (inactive) | GI50 [42]: 17.7 µM (inactive) | GI50 [43]: 4.51 µM | GI50 [44]: 17.8 µM (inactive) | GI50 [45]: 2.01 µM (inactive) | GI50 [46]: 4.38 µM (inactive) | GI50 [47]: 11.8 µM (inactive) | GI50 [48]: 3.52 µM (inactive) | GI50 [49]: 1.58 µM (inactive) | GI50 [50]: 4.28 µM (inactive) | GI50 [51]: 6.19 µM (inactive) | GI50 [52]: 2.16 µM (inactive) | GI50 [53]: 5.06 µM (inactive) | GI50 [54]: 1.92 µM (inactive) | GI50 [55]: 4.57 µM (inactive) | GI50 [56]: 9.91 µM (inactive) | GI50 [57]: 3.21 µM (inactive) | GI50 [58]: 2.22 µM (inactive) | GI50 [59]: 2.32 µM (inactive) | GI50 [60]: 9.75 µM (inactive) | GI50 [61]: 12.5 µM (inactive) | GI50 [62]: 10.8 µM (inactive) | GI50 [63]: 19.7 µM (inactive) | GI50 [64]: > 100 µM (inactive) | GI50 [65]: 2.21 µM (inactive) | GI50 [66]: 1.62 µM (inactive) | GI50 [67]: 7.24 µM (inactive) | GI50 [68]: 17.7 µM (inactive) | GI50 [69]: 3.24 µM (inactive)
